Test system: Pseudomonas aeruginosa azurin position 112
Assay: Selenocysteine incorporation into azurin C112X by intact mass spectrometry
Parameters: species or system E. coli RTΔA.2
Conditions: peak areas of the mass spectrum
Description: RTΔA.2 transformants containing pAz-C112X-AU and pRSF-eSelAK were cultured as described previously with the exception that 20 μM Na2SeO3 was added for the 24 hour incubation. Cells were harvested by centrifugation and the periplasmic fraction isolated. Briefly, cell pellets were resuspended in 50 mL of 100 mM Tris and 0.75 M sucrose at pH 7.5. Following addition of lysozyme to 1 mg·mL^−1 and protease inhibitor cocktail cells were gently agitated for 20 min at 4° C. 50 mL of 1 mM EDTA was added and samples incubated again for 20 minutes. EDTA was neutralized by addition of 3.5 mL 0.5M MgCl2 during a further 20 min incubation. Spheroblasts were removed by centrifugation at 35000×g for 30 min, the periplasmic fraction passed through a 0.2 µm filter and mixed with imidazole stock solution to a final concentration of 20 mM. Seleno-azurin was recovered by IMAC using Ni-NTA resin and gravity flow columns. Eluate was concentrated and dialyzed against 50 mM NH4Ac pH 6.5 prior to the isolation of seleno-azurin by size exclusion FPLC. […]
Intact protein samples were analyzed using methods described previously (Ellefson et al., 2014). […] UVPD mass spectra were also deconvoluted using Xtract and then analyzed using ProsightPC 3.0. […] Incorporation efficiencies were calculated by dividing the area of the modified protein peak by the summed areas of the unmodified protein peak and the modified protein peak. […]

“tRNA^SecUx: Evolved E. coli tRNA^Sec variant with the G7-C66:U49-G65:C50-U64 antideterminant sequence and CUA anticodon” was tested, and the “selenocysteine incorporation efficiency in azurin” value was “greater than 76%”.

Reference: patent US12344879B2, “Transgenic bacteria with expanded amino acid usage and nucleic acid molecules for use in the same” (BOARD OF REGENTS, THE UNIVERSITY OF TEXAS SYSTEM, priority 2015, dated 2025)
